# Test results reported in patent US20250241879A1, “CAPSAICIN SEQUENTIAL DOSING METHOD FOR TREATMENT OF KNEE JOINT PAIN” (priority 2018, published 2025).
# System: human patients with bilateral knee osteoarthritis
# Experiment: Procedure pain (NPRS) due to intraarticular trans-capsaicin, Breg pad vs ice pack cooling (Example 7)
# Type: in vivo
# Conditions: 1 mg intraarticular
# Method: Human patients experiencing osteoarthritic knee joint pain were subjected to two different protocols for intraarticular administration of trans-capsaicin. Temporary pain expected due to administration of capsaicin was analyzed, along with the intraarticular temperature of the knee joint and the temperature of the patient's skin in the area to be cooled.
# (§1) One of the protocols utilized a Breg Knee WrapOn Polar Pad (as illustrated in FIG. 1) that utilizes circulating ice-water to achieve cooling, where the pad is placed on skin surrounding the knee in order to cool the knee joint. The other protocol utilized ice-pack cooling, in which the patient's knee was wrapped with a stockinette and then the ice pack was positioned on top of the stockinette so that the ice pack is positioned over the patient's patella to thereby cool the knee joint. The ice pack was a LEADSTAR pain relief reusable cold therapy ice pack (size=6 inches). A temperature probe was placed into the intraarticular space of the patient's knee joint to measure intraarticular temperature of the knee joint. A temperature probe was also placed on the skin in the area to be cooled in order to measure skin temperature in the area to be cooled.
# Five human patients suffering from moderate to severe painful bilateral knee osteoarthritis were recruited for this study evaluating the impact that cooling protocol has on the magnitude of temporary pain experienced by the patient due to administration of capsaicin. […] Patients that participated in the study passed the following screening criteria and meet the patient inclusion and exclusion criteria are set forth below. As part of patient screening, patients received an intradermal injection of 100 μL (100 μg) capsaicin into the non-dominant volar forearm. To be eligible to enter the study, patients were able to tolerate the capsaicin injection. Screening patients rated the pain from capsaicin injection at 5, 10, 20, and 30 minutes after injection using a 0-10 Numerical Pain Rating Scale, where “0” equals no pain and “10” equals worst possible pain.
# as §1, with “ice pack (having a surface for application to the patient, wherein said surface has a diameter of approximately six inches) is positioned” for “ice pack is positioned”, “knee joint. A temperature” for “knee joint. The ice pack was a LEADSTAR pain relief reusable cold therapy ice pack (size=6 inches). A temperature”, “knee joint. At the discretion of the physician performing the procedure, in order to reduce discomfort for the patient, the protocol authorized the physician to instill a volume of 1-2 cc of 2% w/w lidocaine (without epinephrine) into the skin and subcutaneous tissue of the knee at the site of intra-articular probe insertion. A temperature” for “knee joint. A temperature”
# One the first day of the study, patients were randomized so that (i) three patients receiving cooling of the knee joint using the Breg Knee WrapOn Polar Pad and (ii) two patients will receive ice-pack cooling over the patella as set forth above. Patients were subjected to the following procedure: • Placement of intraarticular temperature probe and skin temperature probe. […]
structure (smiles),measurement,setting,value
"COc1cc(CNC(=O)CCCCC=CC(C)C)ccc1O [trans-capsaicin, N-[(4-hydroxy-3-methoxyphenyl)methyl]-8-methylnon-6-enamide]",Knee Pain (NPRS),"Ice Pack cooling, 20 min, all five patients (Example 7)",0.4 (+/−0.5)
same,Knee Pain (NPRS),"Ice Pack cooling, 20 min, four patients (Example 7)",0.5 (+/−0.6)
same,Knee Pain (NPRS),"Ice Pack cooling, 30 min, all five patients (Example 7)",0.3 (+/−0.5)
same,Knee Pain (NPRS),"Ice Pack cooling, 30 min, four patients (Example 7)",0.3 (+/−0.6)
same,Knee Pain (NPRS),"Ice Pack cooling, 40 min, all five patients (Example 7)",0.0
same,Knee Pain (NPRS),"Ice Pack cooling, 40 min, four patients (Example 7)",0.0
same,Knee Pain (NPRS),"Ice Pack cooling, 50 min, all five patients (Example 7)",0.3 (+/−0.5)
same,Knee Pain (NPRS),"Ice Pack cooling, 50 min, four patients (Example 7)",0.3 (+/−0.5)
same,Knee Pain (NPRS),"Ice Pack cooling, 70 min, all five patients (Example 7)",7.3 (+/−1.9)
same,Knee Pain (NPRS),"Ice Pack cooling, 70 min, four patients (Example 7)",7.3 (+/−1.9)
same,Knee Pain (NPRS),"Ice Pack cooling, 80 min, all five patients (Example 7)",5.4 (+/−3.7)
same,Knee Pain (NPRS),"Ice Pack cooling, 80 min, four patients (Example 7)",6.8 (+/−2.5)
same,Knee Pain (NPRS),"Ice Pack cooling, 90 min, all five patients (Example 7)",4.0 (+/−1.6)
same,Knee Pain (NPRS),"Ice Pack cooling, 90 min, four patients (Example 7)",4.3 (+/−1.7)
same,Knee Pain (NPRS),"Ice Pack cooling, 100 min, all five patients (Example 7)",3.2 (+/−1.6)
same,Knee Pain (NPRS),"Ice Pack cooling, 100 min, four patients (Example 7)",3.5 (+/−1.7)
same,Knee Pain (NPRS),"Ice Pack cooling, 110 min, all five patients (Example 7)",2.4 (+/−2.1)
same,Knee Pain (NPRS),"Ice Pack cooling, 110 min, four patients (Example 7)",2.8 (+/−2.2)
same,Knee Pain (NPRS),"Ice Pack cooling, 120 min, all five patients (Example 7)",1.8 (+/−1.3)
same,Knee Pain (NPRS),"Ice Pack cooling, 120 min, four patients (Example 7)",2.0 (+/−1.4)
same,Knee Pain (NPRS),"Ice Pack cooling, 130 min, all five patients (Example 7)",2.0 (+/−1.0)
same,Knee Pain (NPRS),"Ice Pack cooling, 130 min, four patients (Example 7)",2.3 (+/−1.0)
same,Knee Pain (NPRS),"Ice Pack cooling, 140 min, all five patients (Example 7)",1.8 (+/−1.1)
same,Knee Pain (NPRS),"Ice Pack cooling, 140 min, four patients (Example 7)",1.8 (+/−1.3)
same,Knee Pain (NPRS),"Ice Pack cooling, 150 min, all five patients (Example 7)",1.4 (+/−0.9)
same,Knee Pain (NPRS),"Ice Pack cooling, 150 min, four patients (Example 7)",1.3 (+/−1.0)
same,Knee Pain (NPRS),"Ice Pack cooling, 160 min, all five patients (Example 7)",1.0 (+/−1.4)
same,Knee Pain (NPRS),"Ice Pack cooling, 160 min, four patients (Example 7)",2.0
same,Knee Pain (NPRS),"Ice Pack cooling, 170 min, all five patients (Example 7)",0.5 (+/−0.7)
same,Knee Pain (NPRS),"Ice Pack cooling, 170 min, four patients (Example 7)",1.0
same,Knee Pain (NPRS),"Ice Pack cooling, 180 min, all five patients (Example 7)",7.0
same,Knee Pain (NPRS),"Ice Pack cooling, 180 min, four patients (Example 7)",7.0
same,Knee Pain (NPRS),"Ice Pack cooling, 190 min, all five patients (Example 7)",2.0
same,Knee Pain (NPRS),"Ice Pack cooling, 190 min, four patients (Example 7)",2.0
same,Knee Pain (NPRS),"Ice Pack cooling, Baseline, all five patients (Example 7)",1.0 (+/−2.2)
same,Knee Pain (NPRS),"Ice Pack cooling, Baseline, four patients (Example 7)",1.3 (+/−2.5)
same,Knee Pain (NPRS),"Standard Cooling Device (Breg pad), 20 min, all five patients (Example 7)",1.0 (+/−1.7)
same,Knee Pain (NPRS),"Standard Cooling Device (Breg pad), 20 min, four patients (Example 7)",1.3 (+/−1.9)
same,Knee Pain (NPRS),"Standard Cooling Device (Breg pad), 30 min, all five patients (Example 7)",1.2 (+/−1.1)
same,Knee Pain (NPRS),"Standard Cooling Device (Breg pad), 30 min, four patients (Example 7)",1.3 (+/−1.3)
same,Knee Pain (NPRS),"Standard Cooling Device (Breg pad), 50 min, all five patients (Example 7)",0.8 (+/−0.8)
same,Knee Pain (NPRS),"Standard Cooling Device (Breg pad), 50 min, four patients (Example 7)",1.0 (+/−0.8)
same,Knee Pain (NPRS),"Standard Cooling Device (Breg pad), 70 min, all five patients (Example 7)",5.0 (+/−2.9)
same,Knee Pain (NPRS),"Standard Cooling Device (Breg pad), 70 min, four patients (Example 7)",4.0 (+/−2.2)
same,Knee Pain (NPRS),"Standard Cooling Device (Breg pad), 80 min, all five patients (Example 7)",4.0 (+/−1.4)
same,Knee Pain (NPRS),"Standard Cooling Device (Breg pad), 80 min, four patients (Example 7)",3.8 (+/−1.5)
same,Knee Pain (NPRS),"Standard Cooling Device (Breg pad), 90 min, all five patients (Example 7)",2.8 (+/−1.6)
same,Knee Pain (NPRS),"Standard Cooling Device (Breg pad), 90 min, four patients (Example 7)",2.5 (+/−1.7)
same,Knee Pain (NPRS),"Standard Cooling Device (Breg pad), 100 min, all five patients (Example 7)",2.0 (+/−1.4)
same,Knee Pain (NPRS),"Standard Cooling Device (Breg pad), 100 min, four patients (Example 7)",1.8 (+/−1.5)
same,Knee Pain (NPRS),"Standard Cooling Device (Breg pad), 110 min, all five patients (Example 7)",1.2 (+/−0.8)
same,Knee Pain (NPRS),"Standard Cooling Device (Breg pad), 110 min, four patients (Example 7)",1.3 (+/−1.0)
same,Knee Pain (NPRS),"Standard Cooling Device (Breg pad), 120 min, all five patients (Example 7)",1.0 (+/−0.7)
same,Knee Pain (NPRS),"Standard Cooling Device (Breg pad), 120 min, four patients (Example 7)",1.0 (+/−0.8)
same,Knee Pain (NPRS),"Standard Cooling Device (Breg pad), 130 min, all five patients (Example 7)",0.6 (+/−0.5)
same,Knee Pain (NPRS),"Standard Cooling Device (Breg pad), 130 min, four patients (Example 7)",0.8 (+/−0.5)
same,Knee Pain (NPRS),"Standard Cooling Device (Breg pad), 140 min, all five patients (Example 7)",1.2 (+/−0.8)
same,Knee Pain (NPRS),"Standard Cooling Device (Breg pad), 140 min, four patients (Example 7)",1.0 (+/−0.8)
same,Knee Pain (NPRS),"Standard Cooling Device (Breg pad), 150 min, all five patients (Example 7)",1.2 (+/−1.1)
same,Knee Pain (NPRS),"Standard Cooling Device (Breg pad), 150 min, four patients (Example 7)",1.3 (+/−1.3)
same,Knee Pain (NPRS),"Standard Cooling Device (Breg pad), Baseline, all five patients (Example 7)",1.8 (+/−2.4)
same,Knee Pain (NPRS),"Standard Cooling Device (Breg pad), Baseline, four patients (Example 7)",2.0 (+/−2.7)
